Measured values reported in patent US11008314B2, “Compounds and methods for modulating interleukin-2-inducible t-cell kinase” (CORVUS PHARMACEUTICALS, INC., priority 2016, dated 2021).

Experiments:
Type in all cases: biochemical
[1] = molecular target: ITK (Homo sapiens (Human), UniProt Q08881); test: IC50 against ITK
[2] = molecular target: BTK (Homo sapiens (Human), UniProt Q06187); test: IC50 against BTK
[3] = molecular target: TXK (Homo sapiens (Human), UniProt P42681); test: IC50 against TXK; details: for TXK/ITK: ratio of TXK IC50 to ITK IC50
Sequence of TXK (P42681 whole entry, species assumed): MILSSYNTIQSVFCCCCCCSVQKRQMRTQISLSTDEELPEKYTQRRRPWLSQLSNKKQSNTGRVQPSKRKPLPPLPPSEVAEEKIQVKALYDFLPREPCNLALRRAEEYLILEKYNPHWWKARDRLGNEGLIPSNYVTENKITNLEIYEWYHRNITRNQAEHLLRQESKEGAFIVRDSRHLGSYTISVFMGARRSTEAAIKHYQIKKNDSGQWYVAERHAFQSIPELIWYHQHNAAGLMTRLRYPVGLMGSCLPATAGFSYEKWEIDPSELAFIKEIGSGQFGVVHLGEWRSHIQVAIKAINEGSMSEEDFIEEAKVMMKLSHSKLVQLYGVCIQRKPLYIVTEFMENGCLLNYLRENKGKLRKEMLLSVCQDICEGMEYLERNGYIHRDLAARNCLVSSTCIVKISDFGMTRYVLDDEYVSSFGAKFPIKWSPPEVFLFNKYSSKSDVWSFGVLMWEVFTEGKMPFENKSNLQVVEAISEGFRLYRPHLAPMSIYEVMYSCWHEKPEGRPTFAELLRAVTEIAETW

[4] = molecular target: JAK3 (Homo sapiens (Human), UniProt P52333); test: IC50 against JAK3
Sequence of JAK3 (P52333 whole entry, species assumed): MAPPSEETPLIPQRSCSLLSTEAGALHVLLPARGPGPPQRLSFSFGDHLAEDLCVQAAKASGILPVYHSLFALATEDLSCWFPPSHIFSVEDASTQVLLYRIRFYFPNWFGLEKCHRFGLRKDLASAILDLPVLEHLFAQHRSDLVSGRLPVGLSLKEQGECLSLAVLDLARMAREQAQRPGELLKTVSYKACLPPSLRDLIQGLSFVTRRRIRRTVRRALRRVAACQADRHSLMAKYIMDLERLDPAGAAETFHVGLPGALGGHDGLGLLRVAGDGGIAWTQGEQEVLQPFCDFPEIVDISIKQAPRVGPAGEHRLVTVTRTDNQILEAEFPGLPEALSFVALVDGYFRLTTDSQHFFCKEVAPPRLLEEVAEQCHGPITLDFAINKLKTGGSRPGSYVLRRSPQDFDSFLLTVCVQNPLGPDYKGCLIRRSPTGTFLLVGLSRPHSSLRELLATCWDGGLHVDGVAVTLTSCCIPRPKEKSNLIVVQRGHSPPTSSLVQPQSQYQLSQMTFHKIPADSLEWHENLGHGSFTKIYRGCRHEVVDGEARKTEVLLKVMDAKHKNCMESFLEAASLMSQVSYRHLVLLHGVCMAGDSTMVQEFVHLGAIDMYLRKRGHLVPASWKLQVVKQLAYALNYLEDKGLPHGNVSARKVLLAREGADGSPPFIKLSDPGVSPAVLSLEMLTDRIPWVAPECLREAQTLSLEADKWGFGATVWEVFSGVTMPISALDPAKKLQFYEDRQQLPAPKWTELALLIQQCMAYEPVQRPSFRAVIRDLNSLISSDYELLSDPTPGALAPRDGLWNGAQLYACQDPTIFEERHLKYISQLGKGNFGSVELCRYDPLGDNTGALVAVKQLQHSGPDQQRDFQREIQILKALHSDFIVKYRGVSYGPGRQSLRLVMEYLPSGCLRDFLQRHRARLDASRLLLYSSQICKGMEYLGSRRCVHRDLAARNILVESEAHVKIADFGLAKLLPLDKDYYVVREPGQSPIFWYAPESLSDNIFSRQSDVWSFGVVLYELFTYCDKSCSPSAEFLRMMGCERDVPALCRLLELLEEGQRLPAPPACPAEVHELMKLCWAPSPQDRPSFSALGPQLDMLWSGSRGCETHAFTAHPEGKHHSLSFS

Sequence of ITK (Q08881 whole entry): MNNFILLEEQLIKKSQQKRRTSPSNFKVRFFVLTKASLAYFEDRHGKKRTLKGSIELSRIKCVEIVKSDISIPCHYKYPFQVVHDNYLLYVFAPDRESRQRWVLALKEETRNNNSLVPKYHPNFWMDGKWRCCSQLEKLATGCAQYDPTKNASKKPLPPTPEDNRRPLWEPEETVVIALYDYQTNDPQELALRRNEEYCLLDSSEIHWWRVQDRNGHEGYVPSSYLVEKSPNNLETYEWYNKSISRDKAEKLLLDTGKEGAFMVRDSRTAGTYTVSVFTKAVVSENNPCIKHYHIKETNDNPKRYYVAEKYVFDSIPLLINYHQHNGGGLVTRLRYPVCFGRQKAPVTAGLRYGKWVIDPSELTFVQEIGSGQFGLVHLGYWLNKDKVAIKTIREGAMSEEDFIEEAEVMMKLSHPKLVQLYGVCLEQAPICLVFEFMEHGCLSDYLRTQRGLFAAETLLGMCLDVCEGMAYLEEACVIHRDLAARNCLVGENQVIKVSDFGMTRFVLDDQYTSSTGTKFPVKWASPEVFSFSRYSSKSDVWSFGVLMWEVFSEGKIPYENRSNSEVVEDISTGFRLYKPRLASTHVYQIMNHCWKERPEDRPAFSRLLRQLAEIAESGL
Sequence of BTK (Q06187 whole entry, species assumed): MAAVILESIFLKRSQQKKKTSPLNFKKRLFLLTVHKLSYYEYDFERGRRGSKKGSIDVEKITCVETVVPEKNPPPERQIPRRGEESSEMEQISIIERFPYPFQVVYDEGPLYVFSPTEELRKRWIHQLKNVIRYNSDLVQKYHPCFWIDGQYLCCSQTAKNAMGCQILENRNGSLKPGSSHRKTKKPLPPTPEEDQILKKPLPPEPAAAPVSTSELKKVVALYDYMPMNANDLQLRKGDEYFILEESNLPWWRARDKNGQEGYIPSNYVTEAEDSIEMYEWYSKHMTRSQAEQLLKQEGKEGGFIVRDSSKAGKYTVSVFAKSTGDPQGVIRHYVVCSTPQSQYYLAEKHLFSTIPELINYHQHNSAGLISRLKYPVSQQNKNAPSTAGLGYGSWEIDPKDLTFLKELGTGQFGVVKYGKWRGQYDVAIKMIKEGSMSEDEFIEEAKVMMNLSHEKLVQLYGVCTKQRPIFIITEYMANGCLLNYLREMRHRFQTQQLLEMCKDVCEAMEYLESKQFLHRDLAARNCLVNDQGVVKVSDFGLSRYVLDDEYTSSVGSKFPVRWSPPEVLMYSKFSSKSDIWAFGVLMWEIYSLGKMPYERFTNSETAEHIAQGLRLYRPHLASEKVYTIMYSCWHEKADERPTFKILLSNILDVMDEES

| SMILES | IC50 [1] | IC50 [2] | IC50 [3] | TXK/ITK [3] | IC50 [4] |
| --- | --- | --- | --- | --- | --- |
| C=CC(=O)N1CCCN(C(=O)c2cc(Sc3cnc(NC(=O)C4CC4)s3)cc(C)c2C)C[C@H]1C [Compound 63] | 100 to 1000 nM | ≥ 10000 nM | 1000 to 10000 nM | 61.086 | ≥ 10000 nM |
| C=CC(=O)N1CCCN(C(=O)c2cc(C)c(C)c(Sc3cnc(NC(=O)C4CC4)s3)c2)C[C@H]1C [Compound 64] | 100 to 1000 nM | ≥ 10000 nM | 1000 to 10000 nM | 11.944 | ≥ 10000 nM |
| C=CC(=O)N1CCN(C(=O)c2cc(Cc3cnc(NC(=O)C4CC4)s3)c(C)cc2OC)CC1 [Compound 65] | < 10 nM | 10 to 100 nM | < 10 nM | 0.392 | 100 to 1000 nM |
| C=CC(=O)N1CCN(C(=O)c2cc(Sc3cnc(NC(=O)c4cccc(CN(C)C)c4)s3)c(C)cc2OC)CC(F)C1 (centres unmarked) [Compound 66] | < 10 nM | 100 to 1000 nM | 100 to 1000 nM | 70.047 | 100 to 1000 nM |
| C=CC(=O)N1CCN(C(=O)c2cc(Sc3cnc(NC4CC4)s3)c(C)cc2OC)CC1 [Compound 67] | ≥ 10000 nM | ≥ 10000 nM | 1000 to 10000 nM | 0.634 | 1000 to 10000 nM |
| C=CC(=O)N1CCN(C(=O)c2cc(Sc3cnc(NC(=O)C4CC4)s3)c(C)cc2C(F)(F)F)CC1 [Compound 68] | 10 to 100 nM | ≥ 10000 nM | 100 to 1000 nM | 3.6548 | 1000 to 10000 nM |
| C=CC(=O)N1CCN(C(=O)c2cc(Sc3cnc(NC(=O)C4CC4)s3)c(C)cc2C(F)(F)F)C[C@H]1C [Compound 69] | 100 to 1000 nM | ≥ 10000 nM | 100 to 1000 nM | 4.9369 | 1000 to 10000 nM |
| C=CC(=O)N1CCCN(C(=O)c2cc(Sc3cnc(NC(=O)C4CC4)s3)c(C)cc2C(F)(F)F)C[C@H]1C [Compound 70] | 10 to 100 nM | ≥ 10000 nM | 1000 to 10000 nM | 35.68 | ≥ 10000 nM |
| C=CC(=O)N1CCCN(C(=O)c2cc(Sc3cnc(NC(=O)C4CC4)s3)c(C)cc2OC)[C@@H](C)C1 [Compound 72] | 100 to 1000 nM | ≥ 10000 nM | 1000 to 10000 nM | 1.1846 | ≥ 10000 nM |
| C=CC(=O)N1CCN(C(=O)c2cc(Sc3cnc(NC(=O)C4CC4)s3)c(C)cc2C)CC1 [Compound 73] | < 10 nM | 100 to 1000 nM | 10 to 100 nM | 3.2627 | 100 to 1000 nM |
| C=CC(=O)N1CCCN(C(=O)c2cc(Sc3cnc(NC(=O)C4CC4)s3)c(C)cc2C)CC1 [Compound 74] | < 10 nM | 100 to 1000 nM | 100 to 1000 nM | 16.033 | 100 to 1000 nM |
| C=CC(=O)N1CCN(C(=O)c2cc(Sc3cnc(NC(=O)C4CC4)s3)c(C)cn2)CC1 [Compound 76] | ≥ 10000 nM | ≥ 10000 nM | ≥ 10000 nM | 1 | ≥ 10000 nM |
| C=CC(=O)N1CCCN(C(=O)c2cc(Sc3cnc(NC(=O)C4CC4)s3)ccc2OC)C[C@H]1C [Compound 77] | 10 to 100 nM | ≥ 10000 nM | 1000 to 10000 nM | 95.398 | 1000 to 10000 nM |
| C=CC(=O)N1CCN(C(=O)c2cc(Sc3cnc(NC(=O)C4CC4)s3)ccc2OC)CC1 [Compound 78] | < 10 nM | 100 to 1000 nM | 10 to 100 nM | 10.586 | 100 to 1000 nM |
| C=CC(=O)N1CCN(C(=O)c2cc(Sc3cnc(NC(=O)C4CC4)s3)ccc2OC)C[C@H]1C [Compound 79] | 10 to 100 nM | ≥ 10000 nM | 100 to 1000 nM | 21.331 | 100 to 1000 nM |
| C=CC(=O)N1CCN(C(=O)c2cc(Sc3cnc(NC(=O)C4CC4)s3)c(Cl)cc2C)CC1 [Compound 80] | < 10 nM | 100 to 1000 nM | 10 to 100 nM | 8.1619 | 10 to 100 nM |
